From patent US20050282830A1, “Use of dipyridamole or mopidamole for treatment and prevention of MMP-9-dependent disorders” (Boehringer Ingelheim International GmbH, priority 2003, published 2005)

What was measured:
[1] = tested on: matrix metalloproteinase-9 (MMP-9); experiment: Inhibition of MMP-9 gene expression/synthesis in platelet-monocyte aggregates adherent to collagen type I; assay type: cell-based, Human; conditions: adhered to collagen type I for 18 hours, 9 independent experiments
Method: Inhibition of MMP-9 Gene Expression in Platelet-Monocyte Aggregates by the Dipyridamole Component of Aggrenox® (AGG)
Aggrenox® (AGG) is a fixed dosed combination of extended-release dipyridamole (DIP) and aspirin (ASA). AGG is recommended in the protection of secondary stroke and transient ischemic attacks. It also increases tissue perfusion in patients with stable angina or Raynaud's disease. It was determined if AGG blocked the synthesis of inflammatory genes produced by platelet-monocyte aggregates.
Human platelets and monocytes were pretreated with Dipyridamole (DIP) (5 μg/ml), ASA (625 ng/ml), or a DIP/ASA mixture (AGG); 5 μg/ml: 625 ng/ml, an 8:1 ratio of DIP/ASA). The cells were adhered to collagen type I. Synthesis of matrix metalloproteinase-9 (MMP-9) was determined. […] AGG and DIP reduced MMP-9 expression (53%, 61%, and a 17% reduction in MMP-9 synthesis compared to untreated cells for AGG, DIP, and ASA, respectively; results shown in FIG. 1). The inhibitory actions of AGG on gene expression are due to the DIP component of this |drug|.
FIG. 1: The Dipyridamole component of Aggrenox attenuates MMP-9 synthesis by monocytes (monos) adherent to platelets (pits) and collagen. […] The cells were subsequently adhered to Collagen Type 1 for 18 hours and MMP-9 expression was measured. […]

[2] = ESPS-2; compared with aspirin; cited from earlier work

Row | Structure (SMILES) | reduction in MMP-9 synthesis compared to untreated cells ([1]; human platelets and monocytes pretreated 15 minutes with 625 ng/ml) [%] | reduction in MMP-9 synthesis compared to untreated cells ([1]; human platelets and monocytes pretreated 15 minutes with 5 μg/ml) [%] | reduction of stroke risk [2]
1 | CC(=O)Oc1ccccc1C(=O)O [ASA, acetylsalicalic acid] | 17 | – | –
2 | OCCN(CCO)c1nc(N2CCCCC2)c2nc(N(CCO)CCO)nc(N3CCCCC3)c2n1 [DIP, 2,6-bis(diethanolamino)-4,8-dipiperidino-pyrimido[5,4-d]pyrimidine] | – | 61 | as effective as low-dose aspirin
